For data set [1], the system named is MCF7 and SW480 cancer cells. Nature of the data set: MTT cell viability assay, both cancer cell lines. It is filed as cell-based, human. Conditions: for toxicity towards both MCF7 and SW480 cancer cells (in words): 24, 48 and 72 h of incubation; for IC50: Homo sapiens, MCF7 and SW480, span over 24, 48 and 72 h, read-out: IC50 range towards both cancer cell lines; for cytotoxicity towards MCF7 compared with SW480 (in words): breast cancer cell line MCF7 versus colon cancer cell line SW480. On the procedure:
(§1) MCF7, SW480 and normal L6 muscle cells were bought from the ATCC company, USA [34]. MCF7 and SW480 adenocarcinoma cell lines were cultured, respectively, using Dulbecco’s Modified Eagle Medium (DMEM with 4.5 g/L glucose; HIMEDIA, Mumbai, India) supplemented with 100 U/mL penicillin, 100 µg/mL of streptomycin and 10% fetal bovine serum (FBS; Cat No. FBSEU500; Tico Europe, Amstelveen, The Netherlands) under standard conditions until the desired confluency was reached. Once the desired cell confluency of 70–80% was observed, the cells were sub-cultured through trypsinization, and the cell count was calculated prior to seeding in the 96-well microplate. Similarly, L6 rat myoblasts were cultured accordingly as normal cell lines to compare against MCF7 and SW480 cell lines during the MTT cell viability assay.
(§2) Cells were seeded in a 96-well microplate at a density of 1 × 10^4 cells per well and were allowed to adhere to the wells overnight. Subsequently, the cells were treated with varying concentrations of 12 compounds (1a,b,c–4a,b,c) along with doxorubicin as the positive control. The cells were exposed to the tested substances at concentrations ranging from 50, 25, 10, 5 and 1 μM. The treatment was conducted over three periods of 24 h, 48 h and 72 h, respectively. After the treatment period, thiazolyl blue tetrazolium bromide (MTT) solution was added to each well at a concentration of 0.5 mg/mL and incubated for 3 h in a 37 °C incubator supplemented with 5% CO2. Lastly, the spent MTT medium was removed and DMSO was added to the wells, where the purple formazan crystals were solubilized, and the intensity of the purple hue was spectrophotometrically measured at 570 nm.
(§3) All values were represented as means ± standard deviations (n = 3). The data were statistically analyzed using GraphPad Prism 10.1.0, where the IC50 values of each compound treated on different cell lines at different time points were obtained by extrapolating the logarithmic dose–response curve. The IC50 values were further subjected to one-way ANOVA analysis along with the post hoc test to determine the statistical significance between the treatment groups and the negative control (untreated cells).
A general note: Tetrazolium assays rely on reduction of a dye to a coloured formazan, in cell work by metabolically active cells.

Data set [2] has as its system SW480 colon cancer. Description: MTT cell viability assay, SW480. It is filed as cell-based, human. Conditions: for Selectivity Index (SI), SW480: SI = IC50 L6 / IC50 SW480; for IC50: Homo sapiens, SW480, mean ± SD, n = 3, read-out: Anticancer Activity IC50, SW480. On the procedure:
as §1
(§4) Cells were seeded in a 96-well microplate at a density of 1 × 10^4 cells per well and were allowed to adhere to the wells overnight. […] The cells were exposed to the tested substances at concentrations ranging from 50, 25, 10, 5 and 1 μM. The treatment was conducted over three periods of 24 h, 48 h and 72 h, respectively. […] Lastly, the spent MTT medium was removed and DMSO was added to the wells, where the purple formazan crystals were solubilized, and the intensity of the purple hue was spectrophotometrically measured at 570 nm.
(§5) All values were represented as means ± standard deviations (n = 3). […] The IC50 values were further subjected to one-way ANOVA analysis along with the post hoc test to determine the statistical significance between the treatment groups and the negative control (untreated cells).

Data set [3] concerns normal L6 rat myoblasts. Description: MTT cell viability assay, normal L6 cells. Conditions: Rattus norvegicus, Myoblast, mean ± SD, n = 3, read-out: Anticancer Activity IC50, L6. It is filed as cell-based. On the procedure: as §1, §2, §3
Data set [4] has as its system MCF7 breast cancer. Nature of the data set: MTT cell viability assay, MCF7. In kind it is cell-based, human. Conditions: for Selectivity Index (SI), MCF-7: SI = IC50 L6 / IC50 MCF-7; for IC50: Homo sapiens, MCF7, mean ± SD, n = 3, read-out: Anticancer Activity IC50, MCF-7. On the procedure: as §1, §4, §5
The mark [5] stands for this setting: 72 h treatment period, NA = IC50 beyond the tested concentration range (1-50 µM).

Read-outs that look alike come from different tables or passages of the source.

For orientation: melting point means the temperature of the solid-liquid transition. One may read the IC50 as the concentration at which inhibition is half-maximal.

In turn, `c1ccc(CN2c3cnccc3Sc3cccnc32)c(CN2c3cnccc3Sc3cccnc32)c1` [2a, 1,2-bis((dipyrido[3,2-b:3′,4′-e][1,4]thiazin-10-yl)methyl)benzene] registered a melting point of 260 to 261 °C. Further, in data set [1], the “toxicity towards both MCF7 and SW480 cancer cells (in words)” value is “significantly toxic”; the concentration for half-maximal inhibition (IC50) lay within 6.27 to 9.68 µM. The “Selectivity Index (SI), SW480” value in data set [2] (24 h) came to 2.32. For the same molecule, in data set [2] (48 h), the “Selectivity Index (SI), SW480” value was 2.03. Moreover, the “Selectivity Index (SI), SW480” value in data set [2] (72 h) is 1.75. In addition, in data set [2] (24 h treatment period), the IC50 came out at 9.68 ± 0.17 µM. Further, the IC50 in data set [2] (48 h treatment period) amounted to 8.74 ± 0.03 µM. Besides, in data set [2] (72 h treatment period), the IC50 turned out to be 7.433 ± 0.02 µM. For the same molecule, in data set [3] (24 h treatment period), the half-inhibitory concentration (IC50) came out at 22.1 ± 1.42 µM. Also, in data set [3] (48 h treatment period), the IC50 is 17.7 ± 0.27 µM. In addition, the IC50 in data set [3] (72 h treatment period) was determined as 13 ± 1.32 µM. The “Selectivity Index (SI), MCF-7” value in data set [4] (24 h) amounted to 3.5. Moreover, the “Selectivity Index (SI), MCF-7” value in data set [4] (48 h) is given as 1.83. In addition, the “Selectivity Index (SI), MCF-7” value in data set [4] (72 h) came out at 1.59. For the same molecule, the IC50 in data set [4] (24 h treatment period) is 6.27 ± 0.95 µM. Besides, the IC50 in data set [4] (48 h treatment period) was found to be 9.65 ± 0.63 µM. Also, the IC50 in data set [4] (setting [5]) is 8.16 ± 0.97 µM.

As to `c1ccc(CN2c3cccnc3Sc3cccnc32)c(CN2c3cccnc3Sc3cccnc32)c1` [1a, 1,2-bis((dipyrido[2,3-b:2′,3′-e][1,4]thiazin-10-yl)methyl)benzene], the melting point lay within 265 to 267 °C. Moreover, in data set [1], the “cytotoxicity towards MCF7 compared with SW480 (in words)” value is on record as “higher cytotoxicity”. For the same molecule, the “Selectivity Index (SI), SW480” value in data set [2] (24 h) was 0.94. In data set [2] (48 h), the “Selectivity Index (SI), SW480” value is 0.93. In addition, in data set [2] (72 h), the “Selectivity Index (SI), SW480” value came to 0.92. Besides, the IC50 in data set [2] (24 h treatment period) was 21.8 ± 0.36 µM. In data set [2] (48 h treatment period), the IC50 amounted to 20.5 ± 0.79 µM. Also, the half-maximal inhibitory concentration (IC50) in data set [2] (72 h treatment period) was found to be 17.5 ± 0.5 µM. Moreover, in data set [3] (24 h treatment period), the concentration for half-maximal inhibition (IC50) stood at 20.6 ± 0.29 µM. Further, the IC50 in data set [3] (48 h treatment period) was 19.1 ± 1.08 µM. The IC50 in data set [3] (72 h treatment period) was 16.1 ± 0.42 µM. Moreover, the “Selectivity Index (SI), MCF-7” value in data set [4] (24 h) is 2.62. The “Selectivity Index (SI), MCF-7” value in data set [4] (48 h) was 2.69. For the same molecule, the “Selectivity Index (SI), MCF-7” value in data set [4] (72 h) worked out at 2.15. The half-inhibitory concentration (IC50) in data set [4] (24 h treatment period) stood at 7.85 ± 1.67 µM. Moreover, the half-inhibitory concentration (IC50) in data set [4] (48 h treatment period) was 7.12 ± 0.42 µM. Moreover, the half-inhibitory concentration (IC50) in data set [4] (setting [5]) worked out at 7.49 ± 1.13 µM.

With `c1cc(CN2c3cnccc3Sc3cccnc32)nc(CN2c3cnccc3Sc3cccnc32)c1` [2c, 2,6-bis((dipyrido[3,2-b:3′,4′-e][1,4]thiazin-10-yl)methyl)pyridine], the melting point was 266 to 268 °C. Besides, in data set [1], the “cytotoxicity towards MCF7 compared with SW480 (in words)” value is reported as “higher cytotoxicity”. Besides, the “Selectivity Index (SI), SW480” value in data set [2] (24 h) is on record as 1.02. Also, the “Selectivity Index (SI), SW480” value in data set [2] (48 h) is on record as 0.91. Moreover, in data set [2] (72 h), the “Selectivity Index (SI), SW480” value is listed as 1.12. For the same molecule, the IC50 in data set [2] (24 h treatment period) is 17.2 ± 1.46 µM. Besides, the IC50 in data set [2] (48 h treatment period) was 21.1 ± 0.99 µM. Also, in data set [2] (72 h treatment period), the half-maximal inhibitory concentration (IC50) came out at 15.9 ± 1.48 µM. Further, the IC50 in data set [3] (24 h treatment period) worked out at 17.6 ± 0.85 µM. Moreover, the 50% inhibitory concentration (IC50) in data set [3] (48 h treatment period) is 19.23 ± 0.13 µM. Also, in data set [3] (72 h treatment period), the half-maximal inhibitory concentration (IC50) was 18 ± 0.18 µM. Also, in data set [4] (24 h), the “Selectivity Index (SI), MCF-7” value was determined as 0.76. Also, the “Selectivity Index (SI), MCF-7” value in data set [4] (48 h) was 1.91. In addition, in data set [4] (72 h), the “Selectivity Index (SI), MCF-7” value turned out to be 1.80. Also, the IC50 in data set [4] (24 h treatment period) was 23.2 ± 0.33 µM. The half-inhibitory concentration (IC50) in data set [4] (48 h treatment period) is 10.02 ± 0.05 µM. Further, the IC50 in data set [4] (setting [5]) was determined as 9.96 ± 0.03 µM.

Turning to `c1cc(CN2c3cccnc3Sc3cccnc32)nc(CN2c3cccnc3Sc3cccnc32)c1` [1c, 2,6-bis((dipyrido[2,3-b:2′,3′-e][1,4]thiazin-10-yl)methyl)pyridine], the melting point was 245 to 247 °C. In data set [1], the “toxicity towards both MCF7 and SW480 cancer cells (in words)” value is “significantly toxic”; the half-inhibitory concentration (IC50) was 0.67 to 5 µM. Besides, the “Selectivity Index (SI), SW480” value in data set [2] (24 h) worked out at 16.5. Also, the “Selectivity Index (SI), SW480” value in data set [2] (48 h) came out at 0.67. Besides, the “Selectivity Index (SI), SW480” value in data set [2] (72 h) worked out at 1.5. Moreover, the IC50 in data set [2] (24 h treatment period) was 0.67 µM. Also, the IC50 in data set [2] (48 h treatment period) turned out to be 3.97 ± 1.27 µM. For the same molecule, the IC50 in data set [2] (72 h treatment period) was found to be 4.27 ± 0.19 µM. Moreover, the IC50 in data set [3] (24 h treatment period) is 11.3 ± 0.99 µM. The IC50 in data set [3] (48 h treatment period) was determined as 2.67 ± 2.13 µM. Further, the IC50 in data set [3] (72 h treatment period) worked out at 6.82 ± 1.24 µM. Moreover, in data set [4] (24 h), the “Selectivity Index (SI), MCF-7” value came to 2.25. For the same molecule, the “Selectivity Index (SI), MCF-7” value in data set [4] (48 h) was 3.56. In addition, the “Selectivity Index (SI), MCF-7” value in data set [4] (72 h) was 5.5. In addition, in data set [4] (24 h treatment period), the half-inhibitory concentration (IC50) was found to be 5 ± 1.29 µM. Besides, the half-maximal inhibitory concentration (IC50) in data set [4] (48 h treatment period) is 0.75 ± 1.85 µM. The IC50 in data set [4] (setting [5]) is 1.14 ± 0.51 µM.

(Values after PMC10674446, “Synthesis and Structural Characterization of Novel Dimers of Dipyridothiazine as Promising Antiproliferative Agents” (Molecules, 2023).)
